Test results reported in ChEMBL document CHEMBL1144455, “A small molecule-kinase interaction map for clinical kinase inhibitors” (Nat Biotechnol, 2005).

Experiments:
[1] = target: Fibroblast growth factor receptor 1 (Homo sapiens, UniProt P11362)
[2] = target: Tyrosine-protein kinase Lyn (Homo sapiens, UniProt P07948)
[3] = target: T1, Mitogen-activated protein kinase 12 (Homo sapiens, UniProt P53778)
T1 sequence (P53778 whole entry): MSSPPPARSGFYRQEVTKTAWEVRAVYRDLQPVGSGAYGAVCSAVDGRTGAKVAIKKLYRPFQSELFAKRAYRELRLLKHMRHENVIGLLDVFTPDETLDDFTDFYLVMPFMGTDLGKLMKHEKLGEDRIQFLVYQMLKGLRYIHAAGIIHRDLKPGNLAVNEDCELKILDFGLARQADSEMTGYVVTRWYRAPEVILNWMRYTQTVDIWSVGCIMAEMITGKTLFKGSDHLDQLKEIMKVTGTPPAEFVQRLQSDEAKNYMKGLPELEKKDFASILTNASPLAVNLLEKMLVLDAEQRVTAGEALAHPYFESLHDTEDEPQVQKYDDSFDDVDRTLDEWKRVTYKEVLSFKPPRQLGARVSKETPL

[4] = target: Serine/threonine-protein kinase 38-like (Homo sapiens, UniProt Q9Y2H1)
Chain of Serine/threonine-protein kinase 38-like (Q9Y2H1 whole entry): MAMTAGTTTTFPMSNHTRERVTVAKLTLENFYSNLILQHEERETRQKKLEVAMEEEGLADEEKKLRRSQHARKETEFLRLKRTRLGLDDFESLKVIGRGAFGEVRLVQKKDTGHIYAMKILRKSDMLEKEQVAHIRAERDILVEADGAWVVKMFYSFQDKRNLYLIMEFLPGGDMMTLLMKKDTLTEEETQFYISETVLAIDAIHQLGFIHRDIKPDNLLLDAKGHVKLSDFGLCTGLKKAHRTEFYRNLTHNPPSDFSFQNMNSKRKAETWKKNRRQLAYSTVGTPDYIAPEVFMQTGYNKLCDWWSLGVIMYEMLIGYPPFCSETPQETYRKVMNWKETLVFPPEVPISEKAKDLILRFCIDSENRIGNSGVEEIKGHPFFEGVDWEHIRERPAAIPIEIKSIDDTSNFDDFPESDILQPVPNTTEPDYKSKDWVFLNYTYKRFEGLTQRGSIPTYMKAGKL

[5] = target: Ribosomal protein S6 kinase alpha-5 (Homo sapiens, UniProt O75582)
Chain of Ribosomal protein S6 kinase alpha-5 (O75582 whole entry): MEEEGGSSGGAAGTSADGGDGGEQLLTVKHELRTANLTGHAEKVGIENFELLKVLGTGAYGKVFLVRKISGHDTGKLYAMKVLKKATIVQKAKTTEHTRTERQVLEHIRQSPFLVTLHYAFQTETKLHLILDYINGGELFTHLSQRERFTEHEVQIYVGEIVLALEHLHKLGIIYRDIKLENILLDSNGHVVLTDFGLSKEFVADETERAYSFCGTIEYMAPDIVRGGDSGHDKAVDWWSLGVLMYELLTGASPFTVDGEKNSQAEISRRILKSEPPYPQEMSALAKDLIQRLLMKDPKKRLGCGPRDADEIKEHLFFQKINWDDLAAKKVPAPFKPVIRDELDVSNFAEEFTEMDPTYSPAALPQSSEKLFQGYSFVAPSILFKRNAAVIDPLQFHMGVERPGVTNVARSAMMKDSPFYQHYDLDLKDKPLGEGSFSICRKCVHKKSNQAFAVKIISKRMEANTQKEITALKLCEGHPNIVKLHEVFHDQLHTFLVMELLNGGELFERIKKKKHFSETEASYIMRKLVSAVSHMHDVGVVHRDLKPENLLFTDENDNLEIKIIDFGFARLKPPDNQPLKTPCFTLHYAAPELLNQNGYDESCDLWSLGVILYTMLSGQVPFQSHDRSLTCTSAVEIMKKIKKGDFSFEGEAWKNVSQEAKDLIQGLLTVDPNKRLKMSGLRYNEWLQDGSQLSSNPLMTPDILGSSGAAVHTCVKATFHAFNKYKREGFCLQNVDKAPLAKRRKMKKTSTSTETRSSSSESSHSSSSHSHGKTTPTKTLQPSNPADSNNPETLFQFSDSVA

[6] = target: Vascular endothelial growth factor receptor 2 (Homo sapiens, UniProt P35968)
Chain of Vascular endothelial growth factor receptor 2 (P35968 whole entry): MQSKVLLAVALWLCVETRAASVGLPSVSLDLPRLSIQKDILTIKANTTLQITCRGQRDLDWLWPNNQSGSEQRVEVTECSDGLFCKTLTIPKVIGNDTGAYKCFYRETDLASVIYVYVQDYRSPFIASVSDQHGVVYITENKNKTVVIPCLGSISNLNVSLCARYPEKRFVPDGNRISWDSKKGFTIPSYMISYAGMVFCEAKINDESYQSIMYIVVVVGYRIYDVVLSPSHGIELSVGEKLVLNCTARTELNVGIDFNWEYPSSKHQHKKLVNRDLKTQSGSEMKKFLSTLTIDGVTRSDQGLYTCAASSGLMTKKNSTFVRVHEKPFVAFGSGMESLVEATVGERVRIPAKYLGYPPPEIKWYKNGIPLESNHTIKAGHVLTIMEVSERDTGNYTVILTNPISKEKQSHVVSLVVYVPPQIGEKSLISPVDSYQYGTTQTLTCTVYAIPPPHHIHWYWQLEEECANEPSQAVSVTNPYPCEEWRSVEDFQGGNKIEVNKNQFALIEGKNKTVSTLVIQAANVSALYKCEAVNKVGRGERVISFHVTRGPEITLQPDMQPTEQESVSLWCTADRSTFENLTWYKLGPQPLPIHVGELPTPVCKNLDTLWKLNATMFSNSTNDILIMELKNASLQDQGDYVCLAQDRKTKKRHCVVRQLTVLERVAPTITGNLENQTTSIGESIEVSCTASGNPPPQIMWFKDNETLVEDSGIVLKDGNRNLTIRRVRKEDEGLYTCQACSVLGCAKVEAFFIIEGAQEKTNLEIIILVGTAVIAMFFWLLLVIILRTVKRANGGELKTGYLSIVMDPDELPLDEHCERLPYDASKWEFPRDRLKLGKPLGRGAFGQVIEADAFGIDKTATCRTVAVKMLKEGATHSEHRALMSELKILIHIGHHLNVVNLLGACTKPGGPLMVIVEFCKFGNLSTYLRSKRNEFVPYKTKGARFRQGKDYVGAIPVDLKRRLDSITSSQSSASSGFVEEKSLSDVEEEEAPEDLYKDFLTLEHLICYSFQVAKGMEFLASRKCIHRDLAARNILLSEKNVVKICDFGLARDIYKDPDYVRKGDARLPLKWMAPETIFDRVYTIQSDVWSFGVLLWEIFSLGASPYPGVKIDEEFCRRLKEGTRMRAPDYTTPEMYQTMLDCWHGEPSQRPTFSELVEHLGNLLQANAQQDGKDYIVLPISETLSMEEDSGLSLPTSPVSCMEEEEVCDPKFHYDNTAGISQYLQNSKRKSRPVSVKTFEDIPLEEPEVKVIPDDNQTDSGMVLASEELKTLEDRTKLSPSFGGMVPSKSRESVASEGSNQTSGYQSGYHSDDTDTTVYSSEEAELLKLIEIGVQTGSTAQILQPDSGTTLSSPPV

[7] = target: Ribosomal protein S6 kinase alpha-2 (Homo sapiens, UniProt Q15349)
Chain of Ribosomal protein S6 kinase alpha-2 (Q15349 whole entry): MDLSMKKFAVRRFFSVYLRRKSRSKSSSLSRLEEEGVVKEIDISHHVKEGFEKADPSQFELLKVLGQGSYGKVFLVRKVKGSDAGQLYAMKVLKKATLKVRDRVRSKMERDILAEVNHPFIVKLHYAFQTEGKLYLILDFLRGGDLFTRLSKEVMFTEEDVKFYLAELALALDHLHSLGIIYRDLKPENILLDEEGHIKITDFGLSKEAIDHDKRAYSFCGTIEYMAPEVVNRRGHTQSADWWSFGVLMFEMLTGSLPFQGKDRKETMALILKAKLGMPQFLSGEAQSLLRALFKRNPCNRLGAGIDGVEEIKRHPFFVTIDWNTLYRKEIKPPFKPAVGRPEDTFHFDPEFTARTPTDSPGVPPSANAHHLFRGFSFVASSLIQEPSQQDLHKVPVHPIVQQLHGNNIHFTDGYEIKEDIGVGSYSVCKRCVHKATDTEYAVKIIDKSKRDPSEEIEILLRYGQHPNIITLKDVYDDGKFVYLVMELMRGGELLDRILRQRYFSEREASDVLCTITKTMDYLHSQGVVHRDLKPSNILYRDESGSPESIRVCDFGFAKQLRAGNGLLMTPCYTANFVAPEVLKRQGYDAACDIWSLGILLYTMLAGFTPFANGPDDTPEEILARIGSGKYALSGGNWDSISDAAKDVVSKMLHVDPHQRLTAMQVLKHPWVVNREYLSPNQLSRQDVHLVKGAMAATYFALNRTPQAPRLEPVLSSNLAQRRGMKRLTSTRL

[8] = target: T2, Receptor-type tyrosine-protein kinase FLT3 (Homo sapiens, UniProt P36888)
T2 sequence (P36888 whole entry): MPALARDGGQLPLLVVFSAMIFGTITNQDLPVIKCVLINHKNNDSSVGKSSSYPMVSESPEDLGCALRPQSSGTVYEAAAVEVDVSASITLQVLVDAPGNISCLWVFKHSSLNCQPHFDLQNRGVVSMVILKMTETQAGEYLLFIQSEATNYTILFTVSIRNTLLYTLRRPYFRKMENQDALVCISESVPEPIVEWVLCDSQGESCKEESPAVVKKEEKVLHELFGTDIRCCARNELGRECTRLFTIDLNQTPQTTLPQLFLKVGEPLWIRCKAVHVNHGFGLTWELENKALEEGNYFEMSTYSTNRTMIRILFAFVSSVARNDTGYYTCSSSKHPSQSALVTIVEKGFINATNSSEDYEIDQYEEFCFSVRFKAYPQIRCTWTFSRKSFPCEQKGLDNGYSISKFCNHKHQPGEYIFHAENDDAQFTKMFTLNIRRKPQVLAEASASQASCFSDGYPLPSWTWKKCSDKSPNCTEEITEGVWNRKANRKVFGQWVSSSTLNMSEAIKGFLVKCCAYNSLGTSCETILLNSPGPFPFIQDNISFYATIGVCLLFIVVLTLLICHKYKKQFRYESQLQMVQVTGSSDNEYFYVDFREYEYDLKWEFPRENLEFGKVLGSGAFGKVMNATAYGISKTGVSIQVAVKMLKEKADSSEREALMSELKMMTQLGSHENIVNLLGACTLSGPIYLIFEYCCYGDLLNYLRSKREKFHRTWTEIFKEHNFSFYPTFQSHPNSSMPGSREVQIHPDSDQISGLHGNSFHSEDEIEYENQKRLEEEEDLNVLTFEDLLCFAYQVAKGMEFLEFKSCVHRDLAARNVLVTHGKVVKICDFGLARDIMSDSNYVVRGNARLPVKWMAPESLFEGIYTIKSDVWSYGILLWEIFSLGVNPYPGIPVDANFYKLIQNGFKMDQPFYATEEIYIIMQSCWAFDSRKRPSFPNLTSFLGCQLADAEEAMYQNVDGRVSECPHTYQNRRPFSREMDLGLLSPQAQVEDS

Ephrin type-B receptor 4 = target: T3, Ephrin type-B receptor 4 (Homo sapiens, UniProt P54760)
T3 sequence (P54760 whole entry): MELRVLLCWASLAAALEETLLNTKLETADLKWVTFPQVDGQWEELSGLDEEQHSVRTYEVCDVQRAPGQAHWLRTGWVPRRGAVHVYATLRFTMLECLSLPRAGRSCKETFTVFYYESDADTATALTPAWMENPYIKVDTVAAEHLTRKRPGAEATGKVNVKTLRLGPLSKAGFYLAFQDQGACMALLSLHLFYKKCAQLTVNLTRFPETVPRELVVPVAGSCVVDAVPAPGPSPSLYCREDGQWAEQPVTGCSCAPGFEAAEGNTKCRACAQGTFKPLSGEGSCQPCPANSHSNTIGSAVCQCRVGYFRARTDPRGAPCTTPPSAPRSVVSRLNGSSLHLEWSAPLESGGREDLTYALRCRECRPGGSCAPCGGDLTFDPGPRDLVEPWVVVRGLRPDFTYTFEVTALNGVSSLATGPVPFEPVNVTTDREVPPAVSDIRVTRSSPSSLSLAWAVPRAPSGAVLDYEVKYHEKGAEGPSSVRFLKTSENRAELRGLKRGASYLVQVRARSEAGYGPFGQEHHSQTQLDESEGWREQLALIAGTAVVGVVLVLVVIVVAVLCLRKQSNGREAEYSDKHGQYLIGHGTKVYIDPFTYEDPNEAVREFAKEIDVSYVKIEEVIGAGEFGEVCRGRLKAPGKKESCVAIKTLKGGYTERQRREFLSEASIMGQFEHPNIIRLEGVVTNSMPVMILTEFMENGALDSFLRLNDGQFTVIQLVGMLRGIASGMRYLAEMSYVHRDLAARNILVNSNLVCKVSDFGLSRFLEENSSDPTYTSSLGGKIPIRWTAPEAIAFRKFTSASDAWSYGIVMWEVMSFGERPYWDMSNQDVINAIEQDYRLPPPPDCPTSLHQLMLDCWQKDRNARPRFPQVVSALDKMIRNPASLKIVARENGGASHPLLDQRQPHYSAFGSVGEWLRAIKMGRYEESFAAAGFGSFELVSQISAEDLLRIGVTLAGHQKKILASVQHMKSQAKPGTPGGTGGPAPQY

[9] = target: Tyrosine-protein kinase CSK (Homo sapiens, UniProt P41240)

Measured: Kd

Chain of Tyrosine-protein kinase Lyn (P07948 whole entry): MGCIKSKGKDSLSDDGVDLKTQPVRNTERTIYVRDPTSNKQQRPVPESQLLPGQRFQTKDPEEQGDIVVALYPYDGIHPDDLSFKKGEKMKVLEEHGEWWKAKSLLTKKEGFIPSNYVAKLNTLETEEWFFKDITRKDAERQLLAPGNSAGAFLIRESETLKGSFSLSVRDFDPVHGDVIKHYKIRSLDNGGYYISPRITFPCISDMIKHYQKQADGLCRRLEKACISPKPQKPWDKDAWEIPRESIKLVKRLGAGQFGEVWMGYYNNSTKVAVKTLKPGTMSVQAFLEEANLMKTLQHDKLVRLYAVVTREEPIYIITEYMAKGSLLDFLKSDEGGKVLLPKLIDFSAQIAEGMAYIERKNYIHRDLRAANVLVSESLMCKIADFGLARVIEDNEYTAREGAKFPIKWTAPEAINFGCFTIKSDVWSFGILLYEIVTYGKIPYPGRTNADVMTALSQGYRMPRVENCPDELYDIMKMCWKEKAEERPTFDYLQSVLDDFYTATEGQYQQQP
Chain of Fibroblast growth factor receptor 1 (P11362 whole entry): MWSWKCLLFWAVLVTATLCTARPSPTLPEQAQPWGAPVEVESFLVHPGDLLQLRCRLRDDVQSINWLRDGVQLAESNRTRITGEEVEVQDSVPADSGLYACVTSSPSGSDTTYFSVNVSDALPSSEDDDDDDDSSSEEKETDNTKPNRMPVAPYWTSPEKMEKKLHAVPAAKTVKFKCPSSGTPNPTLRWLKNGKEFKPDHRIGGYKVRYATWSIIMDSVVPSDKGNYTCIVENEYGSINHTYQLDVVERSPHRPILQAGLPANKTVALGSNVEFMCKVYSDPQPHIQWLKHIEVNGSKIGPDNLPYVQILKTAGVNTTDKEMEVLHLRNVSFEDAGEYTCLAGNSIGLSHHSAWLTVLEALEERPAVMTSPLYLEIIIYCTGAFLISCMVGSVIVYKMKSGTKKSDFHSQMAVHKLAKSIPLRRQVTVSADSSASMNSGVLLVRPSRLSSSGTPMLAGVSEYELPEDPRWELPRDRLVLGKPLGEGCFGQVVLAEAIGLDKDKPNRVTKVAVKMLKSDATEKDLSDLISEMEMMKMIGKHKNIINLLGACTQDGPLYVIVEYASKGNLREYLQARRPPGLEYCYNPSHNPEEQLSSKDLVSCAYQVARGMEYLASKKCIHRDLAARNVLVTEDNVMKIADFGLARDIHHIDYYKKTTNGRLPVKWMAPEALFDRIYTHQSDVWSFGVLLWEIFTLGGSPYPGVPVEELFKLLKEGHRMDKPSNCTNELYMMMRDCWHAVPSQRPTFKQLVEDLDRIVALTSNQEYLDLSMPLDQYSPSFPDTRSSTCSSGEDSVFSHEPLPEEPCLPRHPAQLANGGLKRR

C#Cc1cccc(Nc2ncnc3cc(OCCOC)c(OCCOC)cc23)c1 [ERLOTINIB]
Not Active: all assays above

Cc1ccc(NC(=O)c2ccc(CN3CCN(C)CC3)cc2)cc1Nc1nccc(-c2cccnc2)n1 [IMATINIB]
Not Active: all assays above

O=c1ncn2nc(Sc3ccc(F)cc3F)ccc2c1-c1c(Cl)cccc1Cl [NEFLAMAPIMOD]
not listed: [6] | Ephrin type-B receptor 4
Not Active: all other assays above

CCOc1cc2ncc(C#N)c(Nc3ccc(F)c(Cl)c3)c2cc1NC(=O)/C=C/CN(C)C [PELITINIB]
Not Active: [1] | [3] | [5] | [6] | [8]

Oc1ccc(-c2nc(-c3ccc(F)cc3)c(-c3ccncc3)[nH]2)cc1 [SB-202190]
not listed: [3]
Not Active: all other assays above

C[S+]([O-])c1ccc(-c2nc(-c3ccc(F)cc3)c(-c3ccncc3)[nH]2)cc1 (centres undefined) [SB-203580]
not listed: [3]
Not Active: all other assays above

CC[C@H](CO)Nc1nc(NCc2ccccc2)c2ncn(C(C)C)c2n1 [SELICICLIB]
not listed: [7]
Not Active: all other assays above

Oc1c2ccccc2c2c3c(cccc13)N=N2 [SP-600125]
Not Active: [1] | [2] | [6] | [8] | Ephrin type-B receptor 4 | [9]

COc1cc2c(N3CCN(C(=O)Nc4ccc(OC(C)C)cc4)CC3)ncnc2cc1OCCCN1CCCCC1 [TANDUTINIB]
not listed: [6] | [8]
Not Active: all other assays above
